# From PubChem BioAssay (NCI)
#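 In this assay, cells in 96-well plates receive the compound at five concentrations for 48 hours. Endpoints are linearly interpolated between the surrounding concentrations. GI50 marks 50% less growth. At the TGI there is no net growth.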
# Experiments:
# Assay in all cases: growth of human tumour cells (NCI), 48 h
# 786-0 renal = system: 786-0 renal
# A498 renal = system: A498 renal
# A549 NSCLC = system: A549 NSCLC
# ACHN renal = system: ACHN renal
# BT-549 breast = system: BT-549 breast
# CAKI-1 renal = system: CAKI-1 renal
# COLO 205 colon = system: COLO 205 colon
# DU-145 prostate = system: DU-145 prostate
# EKVX NSCLC = system: EKVX NSCLC
# HCC-2998 colon = system: HCC-2998 colon
# HCT-116 colon = system: HCT-116 colon
# HCT-15 colon = system: HCT-15 colon
# HL-60(TB) leukemia = system: HL-60(TB) leukemia
# HOP-62 NSCLC = system: HOP-62 NSCLC
# HOP-92 NSCLC = system: HOP-92 NSCLC
# HS 578T breast = system: HS 578T breast
# HT29 colon = system: HT29 colon
# IGROV1 ovarian = system: IGROV1 ovarian
# KM12 colon = system: KM12 colon
# LOX IMVI melanoma = system: LOX IMVI melanoma
# M14 melanoma = system: M14 melanoma
# MALME-3M melanoma = system: MALME-3M melanoma
# MCF7 breast = system: MCF7 breast
# MDA-MB-231 breast = system: MDA-MB-231 breast
# MDA-MB-435 = system: MDA-MB-435
# MOLT-4 leukemia = system: MOLT-4 leukemia
# NCI-H226 lung = system: NCI-H226 lung
# NCI-H23 lung = system: NCI-H23 lung
# NCI-H460 lung = system: NCI-H460 lung
# NCI-H522 lung = system: NCI-H522 lung
# NCI/ADR-RES ovarian = system: NCI/ADR-RES ovarian
# OVCAR-3 ovarian = system: OVCAR-3 ovarian
# OVCAR-4 ovarian = system: OVCAR-4 ovarian
# OVCAR-5 ovarian = system: OVCAR-5 ovarian
# OVCAR-8 ovarian = system: OVCAR-8 ovarian
# PC-3 prostate = system: PC-3 prostate
# RXF 393 renal = system: RXF 393 renal
# SF-268 CNS = system: SF-268 CNS
# SF-295 CNS = system: SF-295 CNS
# SF-539 CNS = system: SF-539 CNS
# SK-MEL-2 melanoma = system: SK-MEL-2 melanoma
# SK-MEL-28 melanoma = system: SK-MEL-28 melanoma
# SK-MEL-5 melanoma = system: SK-MEL-5 melanoma
# SK-OV-3 ovarian = system: SK-OV-3 ovarian
# SN12C renal = system: SN12C renal
# SNB-19 CNS = system: SNB-19 CNS
# SNB-75 CNS = system: SNB-75 CNS
# SR leukemia = system: SR leukemia
# SW-620 colon = system: SW-620 colon
# T-47D breast = system: T-47D breast
# TK-10 renal = system: TK-10 renal
# U251 CNS = system: U251 CNS
# UACC-257 melanoma = system: UACC-257 melanoma
# UACC-62 melanoma = system: UACC-62 melanoma
# UO-31 renal = system: UO-31 renal
smiles,measurement,setting,value
C[C@H]1c2cccc(O)c2C(O)=C2C(=O)[C@]3(O)C(O)=C(C(N)=O)C(=O)[C@@H](N(C)C)[C@@H]3[C@@H](O)[C@@H]21,GI50,786-0 renal,3.26 µM
same,TGI,786-0 renal,12.5 µM
same,GI50,A498 renal,2.86 µM
same,TGI,A498 renal,10.4 µM
same,GI50,A549 NSCLC,3.22 µM
same,TGI,A549 NSCLC,13.2 µM
same,GI50,ACHN renal,3.53 µM
same,TGI,ACHN renal,23.9 µM
same,GI50,BT-549 breast,3.12 µM
same,TGI,BT-549 breast,9.88 µM
same,GI50,CAKI-1 renal,2.08 µM
same,TGI,CAKI-1 renal,8.67 µM
same,GI50,COLO 205 colon,1.88 µM
same,TGI,COLO 205 colon,3.63 µM
same,GI50,DU-145 prostate,3.61 µM
same,TGI,DU-145 prostate,12.5 µM
same,GI50,EKVX NSCLC,3.31 µM
same,TGI,EKVX NSCLC,15.5 µM
same,GI50,HCC-2998 colon,2.97 µM
same,TGI,HCC-2998 colon,12.7 µM
same,GI50,HCT-116 colon,2.89 µM
same,TGI,HCT-116 colon,10.5 µM
same,GI50,HCT-15 colon,3.46 µM
same,TGI,HCT-15 colon,16 µM
same,GI50,HL-60(TB) leukemia,2.3 µM
same,TGI,HL-60(TB) leukemia,6.56 µM
same,GI50,HOP-62 NSCLC,2.76 µM
same,TGI,HOP-62 NSCLC,10.8 µM
same,GI50,HOP-92 NSCLC,2.35 µM
same,TGI,HOP-92 NSCLC,6.18 µM
same,GI50,HS 578T breast,3.42 µM
same,TGI,HS 578T breast,27 µM
same,GI50,HT29 colon,3.43 µM
same,TGI,HT29 colon,11.9 µM
same,GI50,IGROV1 ovarian,2.86 µM
same,TGI,IGROV1 ovarian,9.26 µM
same,GI50,KM12 colon,3.37 µM
same,TGI,KM12 colon,11.5 µM
same,GI50,LOX IMVI melanoma,2.75 µM
same,TGI,LOX IMVI melanoma,10 µM
same,GI50,M14 melanoma,3.28 µM
same,TGI,M14 melanoma,12.6 µM
same,GI50,MALME-3M melanoma,2.76 µM
same,TGI,MALME-3M melanoma,8.57 µM
same,GI50,MCF7 breast,3.51 µM
same,TGI,MCF7 breast,28.2 µM
same,GI50,MDA-MB-231 breast,3.39 µM
same,TGI,MDA-MB-231 breast,13.5 µM
same,GI50,MDA-MB-435,3.01 µM
same,TGI,MDA-MB-435,12.6 µM
same,GI50,MOLT-4 leukemia,3.57 µM
same,TGI,MOLT-4 leukemia,15 µM
same,GI50,NCI-H226 lung,3.72 µM
same,TGI,NCI-H226 lung,25.7 µM
same,GI50,NCI-H23 lung,2.99 µM
same,TGI,NCI-H23 lung,11.9 µM
same,GI50,NCI-H460 lung,2.96 µM
same,TGI,NCI-H460 lung,10.2 µM
same,GI50,NCI-H522 lung,3.16 µM
same,TGI,NCI-H522 lung,12.4 µM
same,GI50,NCI/ADR-RES ovarian,6.18 µM
same,TGI,NCI/ADR-RES ovarian,85.3 µM
same,GI50,OVCAR-3 ovarian,2.5 µM
same,TGI,OVCAR-3 ovarian,6.85 µM
same,GI50,OVCAR-4 ovarian,3.34 µM
same,TGI,OVCAR-4 ovarian,42.1 µM
same,GI50,OVCAR-5 ovarian,5.22 µM
same,TGI,OVCAR-5 ovarian,95.4 µM
same,GI50,OVCAR-8 ovarian,3.29 µM
same,TGI,OVCAR-8 ovarian,14.7 µM
same,GI50,PC-3 prostate,3 µM
same,TGI,PC-3 prostate,12.8 µM
same,GI50,RXF 393 renal,3.79 µM
same,TGI,RXF 393 renal,33.9 µM
same,GI50,SF-268 CNS,3.33 µM
same,TGI,SF-268 CNS,12.1 µM
same,GI50,SF-295 CNS,2 µM
same,TGI,SF-295 CNS,5.69 µM
same,GI50,SF-539 CNS,3.88 µM
same,TGI,SF-539 CNS,14.8 µM
same,GI50,SK-MEL-2 melanoma,3.13 µM
same,TGI,SK-MEL-2 melanoma,8.99 µM
same,GI50,SK-MEL-28 melanoma,4.14 µM
same,TGI,SK-MEL-28 melanoma,16.4 µM
same,GI50,SK-MEL-5 melanoma,1.9 µM
same,TGI,SK-MEL-5 melanoma,4.12 µM
same,GI50,SK-OV-3 ovarian,3.38 µM
same,TGI,SK-OV-3 ovarian,14.3 µM
same,GI50,SN12C renal,3.06 µM
same,TGI,SN12C renal,14.5 µM
same,GI50,SNB-19 CNS,3.02 µM
same,TGI,SNB-19 CNS,14.5 µM
same,GI50,SNB-75 CNS,1.81 µM
same,TGI,SNB-75 CNS,6.66 µM
same,GI50,SR leukemia,1.98 µM
same,TGI,SR leukemia,4.67 µM
same,GI50,SW-620 colon,3.02 µM
same,TGI,SW-620 colon,14.6 µM
same,GI50,T-47D breast,3.28 µM
same,TGI,T-47D breast,34.8 µM
same,GI50,TK-10 renal,4.83 µM
same,TGI,TK-10 renal,47.2 µM
same,GI50,U251 CNS,2.98 µM
same,TGI,U251 CNS,11.9 µM
same,GI50,UACC-257 melanoma,3.19 µM
same,TGI,UACC-257 melanoma,13.9 µM
same,GI50,UACC-62 melanoma,2.53 µM
same,TGI,UACC-62 melanoma,9.68 µM
same,GI50,UO-31 renal,3.15 µM
same,TGI,UO-31 renal,15.1 µM
